Values of other authors, collected in US20040067918A1, “Combination of an aldosterone receptor antagonist and nicotinic acid or a nicotinic acid derivative” (priority 2002, published 2004).

Conditions: severe heart failure patients on standard therapy, relative to placebo-treated subjects

For `CC(=O)SC1CC2=CC(=O)CCC2(C)C2CCC3(C)C(CCC34CCC(=O)O4)C12` (stereo not drawn) [spironolactone, 17-hydroxy-7α-mercapto-3-oxo-17α-pregn-4-ene-21-carboxylic acid γ-lactone acetate], the incidence of hospitalization is listed as “statistically significant reduction” and the mortality is listed as “statistically significant reduction”.
